Measurements taken from ChEMBL document CHEMBL1135154, “Optimization of the beta-aminoester class of factor Xa inhibitors. Part 1: P(4) and side-chain modifications for improved in vitro potency” (Bioorg Med Chem Lett, 2002).
pKi: −log10 of the molar value.

Key:
[1] = Activated partial thromboplastin times (APTT) was determined int human plasma; format: functional
[2] = Activated partial thromboplastin times (APTT) was determined in rat plasma; format: functional
[3] = target: Serine protease 1 (Homo sapiens, UniProt P07477); assay: In vitro inhibitory activity against human trypsin
[4] = target: Coagulation factor X (Homo sapiens, UniProt P00742); assay: In vitro inhibitory activity against human Coagulation factor Xa
[5] = Activated partial thromboplastin times (APTT) was determined in human plasma; format: functional
[6] = target: T1, Prothrombin (Homo sapiens, UniProt P00734); assay: Ratio of human Coagulation factor IIa to that of human Coagulation factor Xa was evaluated
[7] = target: T1, Prothrombin; assay: In vitro inhibitory activity against human Coagulation factor IIa

Serine protease 1, sequence (P07477 whole entry): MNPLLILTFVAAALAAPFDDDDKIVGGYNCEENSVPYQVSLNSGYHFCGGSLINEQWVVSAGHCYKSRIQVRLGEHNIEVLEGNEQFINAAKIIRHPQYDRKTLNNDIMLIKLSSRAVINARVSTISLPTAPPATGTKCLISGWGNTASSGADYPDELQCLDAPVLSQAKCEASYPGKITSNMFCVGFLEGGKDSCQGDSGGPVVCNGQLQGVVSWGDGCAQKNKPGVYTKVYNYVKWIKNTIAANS
Coagulation factor X, sequence (P00742 41-179 limits assumed): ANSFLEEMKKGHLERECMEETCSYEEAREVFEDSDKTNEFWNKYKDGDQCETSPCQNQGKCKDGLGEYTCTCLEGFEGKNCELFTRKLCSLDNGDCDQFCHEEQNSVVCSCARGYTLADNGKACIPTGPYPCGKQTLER
Coagulation factor X, sequence (P00742 235-488 limits assumed): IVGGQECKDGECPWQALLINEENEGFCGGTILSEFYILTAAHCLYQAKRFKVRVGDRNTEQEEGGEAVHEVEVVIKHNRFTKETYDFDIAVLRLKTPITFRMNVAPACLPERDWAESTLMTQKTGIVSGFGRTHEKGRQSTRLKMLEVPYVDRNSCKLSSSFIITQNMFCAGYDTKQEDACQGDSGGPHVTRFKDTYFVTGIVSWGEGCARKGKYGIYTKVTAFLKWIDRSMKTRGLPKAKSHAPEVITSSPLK

| pKi [3] | pKi [4] | Ki ratio (IIa/Xa) [6] | pKi [7] | Structure (SMILES) | APTT [1] [µM] | APTT [2] [µM] | APTT [5] [µM] |
| --- | --- | --- | --- | --- | --- | --- | --- |
| 7.16 | – | – | – | COC(=O)[C@H](Cc1cccc(C(=N)N)c1)[C@@H](C)NC(=O)c1ccc(-c2cccc(CN)c2)cc1 | 0.33 | 1.7 | – |
| 7.16 | 8.28 | ~3250 | – | COC(=O)[C@H](Cc1cccc(C(=N)N)c1)[C@@H](C)NC(=O)c1ccc(-c2ccccc2)cc1 | – | 5.05 | 3.9 |
| – | 7.16 | – | < 5.40 | COC(=O)[C@H](Cc1cccc(C(=N)N)c1)[C@@H](C)NC(=O)c1ccc(-c2ccc(C(=O)O)cc2)cc1 | – | – | – |
| 7.05 | – | – | < 5.40 | COC(=O)[C@H](Cc1cccc(C(=N)N)c1)[C@@H](C)NC(=O)c1ccc(-c2cccc(C(N)=O)c2)cc1 | – | – | – |
| 7.38 | 8.70 | – | < 5.40 | COC(=O)[C@H](Cc1cccc(C(=N)N)c1)[C@@H](C)NC(=O)c1ccc(-c2ccc(C(N)=O)cc2)cc1 | – | – | – |

The next lines start with the compound.

| Structure (SMILES) | pKi [3] | pKi [4] | Ki ratio (IIa/Xa) [6] | pKi [7] | APTT [1] [µM] | APTT [2] [µM] | APTT [5] [µM] |
| --- | --- | --- | --- | --- | --- | --- | --- |
| COC(=O)[C@H](Cc1cccc(C(=N)N)c1)[C@@H](CC(C)C)NC(=O)c1ccc(-c2cccc(CN)c2)cc1 | 7.42 | 9.40 | – | 6.00 | – | – | – |
| CCOC(=O)NCc1cccc(-c2ccc(C(=O)N[C@H](C)[C@@H](Cc3cccc(C(=N)N)c3)C(=O)OC)cc2)c1 | < 5.54 | < 5.92 | – | < 5.40 | – | – | – |
| COC(=O)[C@H](Cc1cccc(C(=N)N)c1)[C@@H](/C=C/c1ccccc1)NC(=O)c1ccc(-c2ccccc2)cc1 | – | 8.03 | – | 6.02 | – | – | – |
| COC(=O)[C@H](Cc1cccc(C(=N)N)c1)[C@H](NC(=O)c1ccc(-c2cccc(CN)c2)cc1)C(C)C | 6.52 | 8.10 | – | < 5.40 | – | – | – |
| COC(=O)[C@@H](CNC(=O)c1ccc(-c2ccccc2)cc1)Cc1cccc(C(=N)N)c1 | 6.64 | 7.70 | – | < 5.40 | – | – | – |
| COC(=O)[C@H](Cc1cccc(C(=N)N)c1)[C@@H](CC1CCCCC1)NC(=O)c1ccc(-c2cccc(CN)c2)cc1 | 7.44 | 8.40 | – | 6.19 | – | – | – |
| COC(=O)[C@H](Cc1cccc(C(=N)N)c1)[C@@H](CCc1ccccc1)NC(=O)c1ccc(-c2ccccc2)cc1 | 7.17 | 7.68 | – | 6.09 | – | – | – |
| COC(=O)[C@H](Cc1cccc(C(=N)N)c1)[C@@H](Cc1ccccc1)NC(=O)c1ccc(-c2ccccc2)cc1 | 7.12 | 7.96 | – | 6.15 | – | – | – |
| CC[C@@H](NC(=O)c1ccc(-c2cccc(CN)c2)cc1)[C@@H](Cc1cccc(C(=N)N)c1)C(=O)OC | 7.20 | 9.15 | – | 5.68 | – | – | – |
| COC(=O)[C@H](Cc1cccc(C(=N)N)c1)[C@@H](C)NC(=O)c1ccc(-c2cccc(CN(C)C)c2)cc1 | 7.02 | 9.00 | – | 5.58 | – | – | – |
